Our source for the IC50 values is US20250270200A1, “CTPS1 INHIBITORS AND USES THEREOF” (Nimbus Clotho, Inc., priority 2022, published 2025).

The target of the assay is T1, human CTPS1 (Homo sapiens, UniProt P17812).
T1 sequence (P17812 1-591): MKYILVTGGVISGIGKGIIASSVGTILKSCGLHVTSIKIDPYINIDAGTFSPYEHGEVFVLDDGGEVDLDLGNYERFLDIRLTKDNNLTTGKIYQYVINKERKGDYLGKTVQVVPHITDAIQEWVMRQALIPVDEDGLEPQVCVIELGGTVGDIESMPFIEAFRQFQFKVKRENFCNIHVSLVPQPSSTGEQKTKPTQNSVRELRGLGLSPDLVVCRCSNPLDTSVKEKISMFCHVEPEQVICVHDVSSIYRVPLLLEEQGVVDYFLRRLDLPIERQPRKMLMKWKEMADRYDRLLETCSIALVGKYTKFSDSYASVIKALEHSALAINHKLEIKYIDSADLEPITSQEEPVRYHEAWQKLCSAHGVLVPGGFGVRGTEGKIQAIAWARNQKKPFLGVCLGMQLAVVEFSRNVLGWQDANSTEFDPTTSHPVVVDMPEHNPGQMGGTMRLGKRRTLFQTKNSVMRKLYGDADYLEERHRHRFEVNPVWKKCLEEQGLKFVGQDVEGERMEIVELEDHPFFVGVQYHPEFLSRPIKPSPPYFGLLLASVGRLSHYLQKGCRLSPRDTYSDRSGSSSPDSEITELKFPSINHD
Nature of the assay: ADP-Glo assay, human CTPS1 enzyme inhibition. Format: biochemical. As to conditions: wild-type human CTPS1, 25 nM enzyme; ADP-Glo; read-out: ADP-Glo_WT_hCTPS1—25 nM_IC50 (IC50). The gist of the method:
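ADP-Glo luminescence quantified ADP produced by 25 nM purified human CTPS1 (full length, FLAG-His tagged) at 25° C within the linear phase. Final substrates: ATP 120 μM, UTP 160 μM, GTP 60 μM, L-glutamine 100 μM; 1% DMSO; pH 7.4 HEPES buffer with Mg2+, KCl, DTT. Compound pre-incubated with enzyme 10 min, then with ATP/UTP 10 min.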

In general, IC50 refers to the point on the concentration scale where inhibition reaches its midpoint. On to `CCOc1cncc(-c2cnc(C(=O)N[C@@H](CN3C[C@@H]4CC[C@H]3CO4)c3cc(NS(=O)(=O)C4CC4)ccn3)s2)n1` [I-135, N-((S)-2-((1S,4S)-2-oxa-5-azabicyclo[2.2.2]octan-5-yl)-1-(4-(cyclopropanesulfonamido)pyridin-2-yl)ethyl)-5-(6-ethoxypyrazin-2-yl)thiazole-2-carboxamide], for which the IC50 is no more than 5 nM.
Regarding `CCOc1cncc(-c2cnc(C(=O)N[C@H](CN3C[C@@H]4CC[C@H]3CO4)c3cc(NS(=O)(=O)C4CC4)ccn3)s2)n1` [I-136, N-((R)-2-((1S,4S)-2-oxa-5-azabicyclo[2.2.2]octan-5-yl)-1-(4-(cyclopropanesulfonamido)pyridin-2-yl)ethyl)-5-(6-ethoxypyrazin-2-yl)thiazole-2-carboxamide], the IC50 lay within 5 to 25 nM.
The result for `CCOc1cncc(-c2cnc(C(=O)N[C@H](CN3CCCC3=O)c3cc(NS(=O)(=O)C4CC4)ccn3)s2)n1` [I-137, (R)-N-(1-(4-(cyclopropanesulfonamido)pyridin-2-yl)-2-(2-oxopyrrolidin-1-yl)ethyl)-5-(6-ethoxypyrazin-2-yl)thiazole-2-carboxamide] reads 25 to 50 nM.
The result for `CCOc1cncc(-c2cnc(C(=O)N[C@@H](CN3CCCC3=O)c3cc(NS(=O)(=O)C4CC4)ccn3)s2)n1` [I-138, (S)-N-(1-(4-(cyclopropanesulfonamido)pyridin-2-yl)-2-(2-oxopyrrolidin-1-yl)ethyl)-5-(6-ethoxypyrazin-2-yl)thiazole-2-carboxamide] reads 5 to 25 nM; that for `CCOc1cncc(-c2cnc(C(=O)N[C@H](Cn3ccccc3=O)c3cc(NS(=O)(=O)C4CC4)ccn3)s2)n1` [I-139, (R)-N-(1-(4-(cyclopropanesulfonamido)pyridin-2-yl)-2-(2-oxopyridin-1(2H)-yl)ethyl)-5-(6-ethoxypyrazin-2-yl)thiazole-2-carboxamide], 25 to 50 nM.
The result for `CCOc1cncc(-c2cnc(C(=O)N[C@@H](Cn3ccccc3=O)c3cc(NS(=O)(=O)C4CC4)ccn3)s2)n1` [I-140, (S)-N-(1-(4-(cyclopropanesulfonamido)pyridin-2-yl)-2-(2-oxopyridin-1(2H)-yl)ethyl)-5-(6-ethoxypyrazin-2-yl)thiazole-2-carboxamide] reads 5 to 25 nM.
As for `CCOc1cncc(-c2cnc(C(=O)N(C)[C@@H](CN3CCOCC3)c3cc(NS(=O)(=O)C4CC4)ccn3)s2)n1` [I-141, (S)-N-(1-(4-(cyclopropanesulfonamido)pyridin-2-yl)-2-morpholinoethyl)-5-(6-ethoxypyrazin-2-yl)-N-methylthiazole-2-carboxamide], the half-inhibitory concentration (IC50) lay within 50 to 100 nM.
The result for `CCOc1cncc(-c2cnc(C(=O)N(C)[C@H](CN3CCOCC3)c3cc(NS(=O)(=O)C4CC4)ccn3)s2)n1` [I-142, (R)-N-(1-(4-(cyclopropanesulfonamido)pyridin-2-yl)-2-morpholinoethyl)-5-(6-ethoxypyrazin-2-yl)-N-methylthiazole-2-carboxamide] reads greater than 100 nM; that for `CCOc1cncc(-c2ccc(C(=O)N[C@@H](CN3CCOCC3)c3cc(NS(=O)(=O)C4CC4)ccn3)c(F)c2)n1` [I-143, (S)-N-(1-(4-(cyclopropanesulfonamido)pyridin-2-yl)-2-morpholinoethyl)-4-(6-ethoxypyrazin-2-yl)-2-fluorobenzamide], 50 to 100 nM.
The result for `CCOc1cncc(-c2ccc(C(=O)N[C@H](CN3CCOCC3)c3cc(NS(=O)(=O)C4CC4)ccn3)c(F)c2)n1` [I-144, (R)-N-(1-(4-(cyclopropanesulfonamido)pyridin-2-yl)-2-morpholinoethyl)-4-(6-ethoxypyrazin-2-yl)-2-fluorobenzamide] reads 5 to 25 nM; that for `O=C(N[C@@H](CN1CCOCC1)c1cc(NS(=O)(=O)C2CC2)ccn1)c1ncc(-c2cnn3ccc(Cl)cc23)s1` [I-145, (S)-5-(5-chloropyrazolo[1,5-a]pyridin-3-yl)-N-(1-(4-(cyclopropanesulfonamido)pyridin-2-yl)-2-morpholinoethyl)thiazole-2-carboxamide], 5 to 25 nM; that for `O=C(N[C@H](CN1CCOCC1)c1cc(NS(=O)(=O)C2CC2)ccn1)c1ncc(-c2cnn3ccc(Cl)cc23)s1` [I-146, (R)-5-(5-chloropyrazolo[1,5-a]pyridin-3-yl)-N-(1-(4-(cyclopropanesulfonamido)pyridin-2-yl)-2-morpholinoethyl)thiazole-2-carboxamide], 5 to 25 nM.
As to `CCOc1cncc(-c2cnc(C(=O)N[C@@H](CN3CCN(C)C(=O)C3)c3cc(NS(=O)(=O)C4CC4)ccn3)s2)n1` [I-147, (S)-N-(1-(4-(cyclopropanesulfonamido)pyridin-2-yl)-2-(4-methyl-3-oxopiperazin-1-yl)ethyl)-5-(6-ethoxypyrazin-2-yl)thiazole-2-carboxamide], the IC50 was 5 to 25 nM.
Take `CCOc1cncc(-c2cnc(C(=O)N[C@H](CN3CCN(C)C(=O)C3)c3cc(NS(=O)(=O)C4CC4)ccn3)s2)n1` [I-148, (R)-N-(1-(4-(cyclopropanesulfonamido)pyridin-2-yl)-2-(4-methyl-3-oxopiperazin-1-yl)ethyl)-5-(6-ethoxypyrazin-2-yl)thiazole-2-carboxamide]: the IC50 was in the range of 5 to 25 nM.
The result for `CCOc1cncc(-c2cnc(C(=O)N[C@@H](CN3C[C@H]4CC[C@@H]3C4)c3cc(NS(=O)(=O)C4CC4)ccn3)s2)n1` [I-149, N-((S)-2-((1R,4S)-2-azabicyclo[2.2.1]heptan-2-yl)-1-(4-(cyclopropanesulfonamido)pyridin-2-yl)ethyl)-5-(6-ethoxypyrazin-2-yl)thiazole-2-carboxamide] reads 50 to 100 nM; that for `CCOc1cncc(-c2cnc(C(=O)N[C@H](CN3C[C@H]4CC[C@@H]3C4)c3cc(NS(=O)(=O)C4CC4)ccn3)s2)n1` [I-150, N-((R)-2-((1R,4S)-2-azabicyclo[2.2.1]heptan-2-yl)-1-(4-(cyclopropanesulfonamido)pyridin-2-yl)ethyl)-5-(6-ethoxypyrazin-2-yl)thiazole-2-carboxamide], 5 to 25 nM; that for `CCOc1cncc(-c2cnc(C(=O)N[C@@H](CN3C[C@H]4C[C@@H](C3)C4)c3cc(NS(=O)(=O)C4CC4)ccn3)s2)n1` [I-151, N-((S)-2-((1R,5R)-3-azabicyclo[3.1.1]heptan-3-yl)-1-(4-(cyclopropanesulfonamido)pyridin-2-yl)ethyl)-5-(6-ethoxypyrazin-2-yl)thiazole-2-carboxamide], 50 to 100 nM.
The result for `CCOc1cncc(-c2cnc(C(=O)N[C@H](CN3C[C@H]4C[C@@H](C3)C4)c3cc(NS(=O)(=O)C4CC4)ccn3)s2)n1` [I-152, N-((R)-2-((1R,5R)-3-azabicyclo[3.1.1]heptan-3-yl)-1-(4-(cyclopropanesulfonamido)pyridin-2-yl)ethyl)-5-(6-ethoxypyrazin-2-yl)thiazole-2-carboxamide] reads 5 to 25 nM.
The result for `CCOc1cncc(-c2cnc(C(=O)N[C@@H](CN3CC4(CCC4)C3)c3cc(NS(=O)(=O)C4CC4)ccn3)s2)n1` [I-153, (S)-N-(1-(4-(cyclopropanesulfonamido)pyridin-2-yl)-2-(2-azaspiro[3.3]heptan-2-yl)ethyl)-5-(6-ethoxypyrazin-2-yl)thiazole-2-carboxamide] reads 25 to 50 nM; that for `CCOc1cncc(-c2cnc(C(=O)N[C@H](CN3CC4(CCC4)C3)c3cc(NS(=O)(=O)C4CC4)ccn3)s2)n1` [I-154, (R)-N-(1-(4-(cyclopropanesulfonamido)pyridin-2-yl)-2-(2-azaspiro[3.3]heptan-2-yl)ethyl)-5-(6-ethoxypyrazin-2-yl)thiazole-2-carboxamide], 5 to 25 nM; that for `CCOc1cncc(-c2cnc(C(=O)N[C@H](Cn3ccnn3)c3cc(NS(=O)(=O)C4CC4)ccn3)s2)n1` [I-156, (R)-N-(1-(4-(cyclopropanesulfonamido)pyridin-2-yl)-2-(1H-1,2,3-triazol-1-yl)ethyl)-5-(6-ethoxypyrazin-2-yl)thiazole-2-carboxamide], 5 to 25 nM.
With `CCOc1cncc(-c2cnc(C(=O)N[C@@H](Cn3nccn3)c3cc(NS(=O)(=O)C4CC4)ccn3)s2)n1` [I-157, (S)-N-(1-(4-(cyclopropanesulfonamido)pyridin-2-yl)-2-(2H-1,2,3-triazol-2-yl)ethyl)-5-(6-ethoxypyrazin-2-yl)thiazole-2-carboxamide], the IC50 is 25 to 50 nM.
The result for `CCOc1cncc(-c2cnc(C(=O)N[C@H](Cn3nccn3)c3cc(NS(=O)(=O)C4CC4)ccn3)s2)n1` [I-158, (R)-N-(1-(4-(cyclopropanesulfonamido)pyridin-2-yl)-2-(2H-1,2,3-triazol-2-yl)ethyl)-5-(6-ethoxypyrazin-2-yl)thiazole-2-carboxamide] reads 5 to 25 nM; that for `O=C(NC(CN1C[C@H]2C[C@@H]1CO2)c1cc(NS(=O)(=O)C2CC2)ccn1)c1ncc(-c2cnn3ccc(Cl)cc23)s1` (stereo partly drawn) [I-159, N-(2-((1R,4R)-2-oxa-5-azabicyclo[2.2.1]heptan-5-yl)-1-(4-(cyclopropanesulfonamido)pyridin-2-yl)ethyl)-5-(5-chloropyrazolo[1,5-a]pyridin-3-yl)thiazole-2-carboxamide], 5 to 25 nM.
